Tests used:
[1] = biological target: Serine/threonine-protein kinase 24 (Homo sapiens) (UniProt Q9Y6E0); test: Inhibition of MST3 at 10 uM
[2] = biological target: Serine/threonine-protein kinase DCLK2 (Homo sapiens) (UniProt Q8N568); test: Inhibition of DCAMKL2 at 10 uM; settings: values are per cent of control
[3] = biological target: Epithelial discoidin domain-containing receptor 1 (Homo sapiens) (UniProt Q08345); test: Inhibition of DDR1 at 10 uM; values are per cent of control
[4] = biological target: Dual specificity mitogen-activated protein kinase kinase 3 (Homo sapiens) (UniProt P46734); test: Inhibition of MEK3 at 10 uM; settings: values are per cent of control
[5] = biological target: Epidermal growth factor receptor (Homo sapiens) (UniProt P04626+P00533+Q15303+P21860); test: Inhibition of EGFR S752-I759del mutant at 10 uM; values are per cent of control
[6] = biological target: Tyrosine-protein kinase TXK (Homo sapiens) (UniProt P42681); test: Inhibition of TXK at 10 uM; settings: values are per cent of control
[7] = biological target: Protein-tyrosine kinase 6 (Homo sapiens) (UniProt Q13882); test: Inhibition of BRK at 10 uM; settings: values are per cent of control
[8] = biological target: Serine/threonine-protein kinase SIK1 (Homo sapiens) (UniProt P57059); test: Inhibition of SIK at 10 uM; values are per cent of control
[9] = biological target: Ribosomal protein S6 kinase alpha-3 (Homo sapiens) (UniProt P51812); test: Inhibition of RSK2 N-terminal domain1 at 10 uM
[10] = biological target: Serine/threonine-protein kinase Nek11 (Homo sapiens) (UniProt Q8NG66); test: Inhibition of NEK11 at 10 uM
[11] = test system: Serine/threonine-protein kinase B-raf (Homo sapiens), P15056 [V600E]; test: Inhibition of BRAF V600E mutant at 10 uM; settings: values are per cent of control
[12] = test system: Receptor-type tyrosine-protein kinase FLT3 (Homo sapiens), P36888 [R834Q]; test: Inhibition of FLT3 R834Q mutant at 10 uM; settings: values are per cent of control
[13] = biological target: Serine/threonine-protein kinase TAO3 (Homo sapiens) (UniProt Q9H2K8); test: Inhibition of TAOK3 at 10 uM
[14] = biological target: Serine/threonine-protein kinase MRCK alpha (Homo sapiens) (UniProt Q5VT25); test: Inhibition of MRCKA at 10 uM
[15] = biological target: Aurora kinase C (Homo sapiens) (UniProt Q9UQB9); test: Inhibition of AURKC at 10 uM; settings: values are per cent of control
[16] = biological target: Aurora kinase B (Homo sapiens) (UniProt Q96GD4); test: Inhibition of AURKB at 10 uM; settings: values are per cent of control
[17] = biological target: Hepatocyte growth factor receptor (Homo sapiens) (UniProt P08581); test: Inhibition of MET at 10 uM
[18] = test system: Phosphatidylinositol 4,5-bisphosphate 3-kinase catalytic subunit alpha isoform (Homo sapiens), P42336 [Q546K]; test: Inhibition of PIK3CA Q546K mutant at 10 uM
[19] = biological target: MAP/microtubule affinity-regulating kinase 4 (Homo sapiens) (UniProt Q96L34); test: Inhibition of MARK4 at 10 uM; settings: values are per cent of control
[20] = biological target: 5'-AMP-activated protein kinase catalytic subunit alpha-1 (Homo sapiens) (UniProt Q13131); test: Inhibition of AMPK-alpha1 at 10 uM; settings: values are per cent of control
[21] = biological target: Mitogen-activated protein kinase kinase kinase 12 (Homo sapiens) (UniProt Q12852); test: Inhibition of DLK at 10 uM; values are per cent of control
[22] = biological target: Tyrosine-protein kinase ABL1 (Homo sapiens) (UniProt P00519); test: Inhibition of phosphorylated ABL1 at 10 uM; settings: values are per cent of control
[23] = biological target: Mitogen-activated protein kinase kinase kinase 19 (Homo sapiens) (UniProt Q56UN5); test: Inhibition of YSK4 at 10 uM; settings: values are per cent of control
[24] = biological target: SRSF protein kinase 2 (Homo sapiens) (UniProt P78362); test: Inhibition of SRPK2 at 10 uM
[25] = biological target: Ribosomal protein S6 kinase alpha-6 (Homo sapiens) (UniProt Q9UK32); test: Inhibition of RSK4 C-terminal domain2 at 10 uM
[26] = biological target: Serine/threonine-protein kinase PLK2 (Homo sapiens) (UniProt Q9NYY3); test: Inhibition of PLK2 at 10 uM; settings: values are per cent of control
[27] = biological target: Activated CDC42 kinase 1 (Homo sapiens) (UniProt Q07912); test: Inhibition of TNK2 at 10 uM; settings: values are per cent of control
[28] = biological target: Mitogen-activated protein kinase kinase kinase kinase 1 (Homo sapiens) (UniProt Q92918); test: Inhibition of HPK1 at 10 uM; settings: values are per cent of control
[29] = test system: Mast/stem cell growth factor receptor Kit (Homo sapiens), P10721 [D816V]; test: Inhibition of KIT D816V mutant at 10 uM; settings: values are per cent of control
[30] = test system: Tyrosine-protein kinase ABL1 (Homo sapiens), P00519 [H396P]; test: Inhibition of non phosphorylated ABL1 H396P mutant at 10 uM; settings: values are per cent of control
[31] = biological target: Serine/threonine-protein kinase PAK 4 (Homo sapiens) (UniProt O96013); test: Inhibition of PAK4 at 10 uM
[32] = biological target: Hormonally up-regulated neu tumor-associated kinase (Homo sapiens) (UniProt P57058); test: Inhibition of HUNK at 10 uM; settings: values are per cent of control
[33] = biological target: Serine/threonine-protein kinase TBK1 (Homo sapiens) (UniProt Q9UHD2); test: Inhibition of TBK1 at 10 uM
[34] = biological target: MAP kinase-interacting serine/threonine-protein kinase 1 (Homo sapiens) (UniProt Q9BUB5); test: Inhibition of MKNK1 at 10 uM
[35] = biological target: Cyclin-dependent kinase 13 (Homo sapiens) (UniProt Q14004); test: Inhibition of CDC2L5 at 10 uM; values are per cent of control
[36] = biological target: Epidermal growth factor receptor (Homo sapiens) (UniProt P00533); test: Inhibition of EGFR at 10 uM; values are per cent of control
[37] = biological target: Ribosomal protein S6 kinase alpha-5 (Homo sapiens) (UniProt O75582); test: Inhibition of RPS6KA5 C-terminal domain2 at 10 uM
[38] = biological target: Serine/threonine-protein kinase N1 (Homo sapiens) (UniProt Q16512); test: Inhibition of PKN1 at 10 uM
[39] = biological target: Calcium/calmodulin-dependent protein kinase kinase 2 (Homo sapiens) (UniProt Q96RR4); test: Inhibition of CAMKK2 at 10 uM; settings: values are per cent of control
[40] = biological target: Tyrosine-protein kinase Blk (Homo sapiens) (UniProt P51451); test: Inhibition of BLK at 10 uM; settings: values are per cent of control
[41] = biological target: Wee1-like protein kinase (Homo sapiens) (UniProt P30291); test: Inhibition of WEE1 at 10 uM; settings: values are per cent of control
[42] = biological target: 5'-AMP-activated protein kinase catalytic subunit alpha-2 (Homo sapiens) (UniProt P54646); test: Inhibition of AMPK-alpha2 at 10 uM; settings: values are per cent of control
Chain of 5'-AMP-activated protein kinase catalytic subunit alpha-2 (Homo sapiens) (P54646 whole entry, looked up): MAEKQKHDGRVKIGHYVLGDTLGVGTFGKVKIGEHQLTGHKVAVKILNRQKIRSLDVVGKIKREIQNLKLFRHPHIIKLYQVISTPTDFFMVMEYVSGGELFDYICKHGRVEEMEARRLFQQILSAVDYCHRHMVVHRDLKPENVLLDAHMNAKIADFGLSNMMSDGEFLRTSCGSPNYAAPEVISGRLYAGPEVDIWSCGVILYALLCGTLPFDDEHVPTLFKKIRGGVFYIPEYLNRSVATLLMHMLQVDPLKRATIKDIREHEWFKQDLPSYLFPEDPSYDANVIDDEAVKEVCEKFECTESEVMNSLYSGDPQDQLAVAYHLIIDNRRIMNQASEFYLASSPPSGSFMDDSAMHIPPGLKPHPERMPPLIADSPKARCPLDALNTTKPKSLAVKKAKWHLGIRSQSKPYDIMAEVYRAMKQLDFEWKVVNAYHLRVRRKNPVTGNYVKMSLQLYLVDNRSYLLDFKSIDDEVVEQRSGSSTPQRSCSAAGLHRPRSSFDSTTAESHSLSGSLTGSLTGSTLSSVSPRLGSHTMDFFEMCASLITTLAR

Chain of Mitogen-activated protein kinase kinase kinase 12 (Homo sapiens) (Q12852 whole entry, looked up): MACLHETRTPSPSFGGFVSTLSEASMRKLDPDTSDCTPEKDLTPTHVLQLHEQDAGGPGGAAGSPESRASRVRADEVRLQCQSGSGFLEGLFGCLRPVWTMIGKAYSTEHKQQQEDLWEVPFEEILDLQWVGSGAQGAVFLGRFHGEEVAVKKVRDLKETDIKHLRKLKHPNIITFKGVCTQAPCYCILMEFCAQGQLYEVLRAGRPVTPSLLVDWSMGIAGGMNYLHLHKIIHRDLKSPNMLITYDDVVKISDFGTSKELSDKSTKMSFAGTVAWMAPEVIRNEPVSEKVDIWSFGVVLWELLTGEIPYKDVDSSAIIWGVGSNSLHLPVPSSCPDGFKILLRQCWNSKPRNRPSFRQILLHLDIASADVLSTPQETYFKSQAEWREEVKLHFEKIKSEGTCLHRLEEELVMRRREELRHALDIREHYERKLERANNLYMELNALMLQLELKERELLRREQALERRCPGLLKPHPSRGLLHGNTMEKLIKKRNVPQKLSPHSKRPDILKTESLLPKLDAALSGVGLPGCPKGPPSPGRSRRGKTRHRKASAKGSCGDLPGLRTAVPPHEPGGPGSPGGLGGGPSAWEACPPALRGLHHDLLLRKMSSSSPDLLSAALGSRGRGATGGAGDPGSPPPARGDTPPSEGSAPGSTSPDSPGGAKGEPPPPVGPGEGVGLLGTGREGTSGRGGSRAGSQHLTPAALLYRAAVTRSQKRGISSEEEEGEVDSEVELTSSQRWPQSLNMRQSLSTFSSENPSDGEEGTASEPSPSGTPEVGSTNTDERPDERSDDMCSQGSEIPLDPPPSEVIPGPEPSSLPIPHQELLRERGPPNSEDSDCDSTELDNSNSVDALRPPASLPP
Chain of Ribosomal protein S6 kinase alpha-3 (Homo sapiens) (P51812 whole entry, the tested form may be a part): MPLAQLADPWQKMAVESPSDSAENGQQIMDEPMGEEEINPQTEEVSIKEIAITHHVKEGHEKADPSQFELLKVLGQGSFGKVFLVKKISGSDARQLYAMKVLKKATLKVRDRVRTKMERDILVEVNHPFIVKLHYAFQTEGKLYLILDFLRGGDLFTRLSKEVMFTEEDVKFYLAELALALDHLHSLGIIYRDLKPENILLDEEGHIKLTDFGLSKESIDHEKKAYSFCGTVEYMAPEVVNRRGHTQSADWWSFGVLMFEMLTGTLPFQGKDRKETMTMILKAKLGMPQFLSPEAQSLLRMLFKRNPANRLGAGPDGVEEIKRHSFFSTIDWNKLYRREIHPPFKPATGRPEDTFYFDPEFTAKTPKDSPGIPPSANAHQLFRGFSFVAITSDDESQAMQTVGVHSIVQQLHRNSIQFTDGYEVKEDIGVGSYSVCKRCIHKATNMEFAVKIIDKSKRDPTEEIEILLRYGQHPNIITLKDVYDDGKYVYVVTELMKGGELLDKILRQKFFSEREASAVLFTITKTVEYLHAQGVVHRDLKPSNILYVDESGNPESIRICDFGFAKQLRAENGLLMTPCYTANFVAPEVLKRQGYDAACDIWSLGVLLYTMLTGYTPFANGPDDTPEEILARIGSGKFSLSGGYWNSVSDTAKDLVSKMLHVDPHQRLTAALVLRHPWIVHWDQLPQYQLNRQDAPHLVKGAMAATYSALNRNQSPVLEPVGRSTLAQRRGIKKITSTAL
Chain of Serine/threonine-protein kinase PAK 4 (Homo sapiens) (O96013 whole entry, looked up): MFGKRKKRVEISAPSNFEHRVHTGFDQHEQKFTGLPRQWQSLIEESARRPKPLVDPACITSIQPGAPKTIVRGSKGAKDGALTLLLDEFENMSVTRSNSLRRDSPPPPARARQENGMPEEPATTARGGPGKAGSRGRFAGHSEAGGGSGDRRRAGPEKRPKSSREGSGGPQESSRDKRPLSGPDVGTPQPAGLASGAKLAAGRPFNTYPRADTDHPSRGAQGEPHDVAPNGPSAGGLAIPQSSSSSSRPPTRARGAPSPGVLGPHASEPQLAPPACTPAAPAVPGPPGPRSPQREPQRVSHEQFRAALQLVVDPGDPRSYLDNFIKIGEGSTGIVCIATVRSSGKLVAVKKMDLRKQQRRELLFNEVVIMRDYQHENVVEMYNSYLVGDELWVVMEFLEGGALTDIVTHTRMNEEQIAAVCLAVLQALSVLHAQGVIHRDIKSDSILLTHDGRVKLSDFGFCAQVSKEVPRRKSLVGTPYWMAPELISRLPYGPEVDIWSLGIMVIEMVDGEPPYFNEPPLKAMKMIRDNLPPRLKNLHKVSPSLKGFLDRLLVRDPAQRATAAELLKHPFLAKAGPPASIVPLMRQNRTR
Chain of Mitogen-activated protein kinase kinase kinase kinase 1 (Homo sapiens) (Q92918 whole entry, looked up): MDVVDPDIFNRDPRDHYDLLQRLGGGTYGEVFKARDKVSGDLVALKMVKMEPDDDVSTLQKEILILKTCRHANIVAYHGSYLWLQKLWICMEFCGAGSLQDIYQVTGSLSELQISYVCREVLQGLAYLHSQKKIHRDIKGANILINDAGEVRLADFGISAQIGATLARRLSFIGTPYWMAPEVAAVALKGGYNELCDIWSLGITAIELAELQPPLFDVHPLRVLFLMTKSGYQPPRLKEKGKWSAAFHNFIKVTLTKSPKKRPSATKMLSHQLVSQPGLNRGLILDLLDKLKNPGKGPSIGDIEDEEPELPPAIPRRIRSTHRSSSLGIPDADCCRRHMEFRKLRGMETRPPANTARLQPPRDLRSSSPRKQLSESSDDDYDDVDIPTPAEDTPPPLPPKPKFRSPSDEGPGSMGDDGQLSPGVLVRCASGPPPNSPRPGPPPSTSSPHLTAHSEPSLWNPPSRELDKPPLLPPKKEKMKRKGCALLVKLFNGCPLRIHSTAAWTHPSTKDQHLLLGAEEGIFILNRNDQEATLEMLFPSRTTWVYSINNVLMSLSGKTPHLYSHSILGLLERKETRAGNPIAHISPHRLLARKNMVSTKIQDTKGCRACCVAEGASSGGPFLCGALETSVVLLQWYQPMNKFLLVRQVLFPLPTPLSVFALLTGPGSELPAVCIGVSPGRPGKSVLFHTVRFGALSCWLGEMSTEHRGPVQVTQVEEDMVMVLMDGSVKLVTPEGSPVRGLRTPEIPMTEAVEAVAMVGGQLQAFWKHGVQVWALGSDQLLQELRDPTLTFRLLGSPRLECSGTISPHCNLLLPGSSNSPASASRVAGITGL
Chain of Serine/threonine-protein kinase TAO3 (Homo sapiens) (Q9H2K8 whole entry): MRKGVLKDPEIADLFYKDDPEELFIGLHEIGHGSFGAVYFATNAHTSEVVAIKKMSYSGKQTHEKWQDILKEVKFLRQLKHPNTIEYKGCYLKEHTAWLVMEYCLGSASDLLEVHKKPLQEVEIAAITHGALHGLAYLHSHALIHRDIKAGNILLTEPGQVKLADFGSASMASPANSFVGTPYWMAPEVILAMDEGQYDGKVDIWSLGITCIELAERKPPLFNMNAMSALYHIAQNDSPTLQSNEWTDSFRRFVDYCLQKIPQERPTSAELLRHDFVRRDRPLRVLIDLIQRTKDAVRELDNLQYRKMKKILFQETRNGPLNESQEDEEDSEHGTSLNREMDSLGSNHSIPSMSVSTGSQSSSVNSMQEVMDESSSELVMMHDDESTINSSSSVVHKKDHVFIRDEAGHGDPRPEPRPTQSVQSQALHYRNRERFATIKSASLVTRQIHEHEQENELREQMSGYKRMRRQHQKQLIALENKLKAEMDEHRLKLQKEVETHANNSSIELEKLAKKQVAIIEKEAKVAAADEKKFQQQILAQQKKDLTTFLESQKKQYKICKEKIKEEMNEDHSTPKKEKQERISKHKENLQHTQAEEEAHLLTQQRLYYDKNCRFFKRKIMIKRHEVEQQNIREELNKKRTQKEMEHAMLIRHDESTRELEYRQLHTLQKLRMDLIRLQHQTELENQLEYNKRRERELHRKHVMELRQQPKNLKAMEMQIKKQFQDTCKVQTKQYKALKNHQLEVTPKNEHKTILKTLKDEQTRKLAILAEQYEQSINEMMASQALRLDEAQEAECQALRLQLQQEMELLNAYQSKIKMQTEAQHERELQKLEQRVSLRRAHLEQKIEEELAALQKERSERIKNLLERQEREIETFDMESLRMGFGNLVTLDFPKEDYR
Chain of Aurora kinase C (Homo sapiens) (Q9UQB9 whole entry): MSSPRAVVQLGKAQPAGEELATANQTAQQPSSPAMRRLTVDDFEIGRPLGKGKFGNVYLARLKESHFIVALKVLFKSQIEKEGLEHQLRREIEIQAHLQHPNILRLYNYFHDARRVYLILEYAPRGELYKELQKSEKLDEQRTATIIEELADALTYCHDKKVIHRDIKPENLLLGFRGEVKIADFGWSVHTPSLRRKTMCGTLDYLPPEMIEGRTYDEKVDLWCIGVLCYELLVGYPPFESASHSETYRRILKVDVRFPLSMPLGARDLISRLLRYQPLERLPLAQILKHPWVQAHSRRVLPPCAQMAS

CCN1CCN(Cc2ccc(NC(=O)c3ccc(C)c(C#Cc4cnc5[nH]ccc5c4)c3)cc2C(F)(F)F)CC1
inhibition [1]: 3.6%
residual binding, % of control [2]: 30%
level, % of control [3]: 0%
residual binding, % of control [4]: 67%
level, % of control [5]: 0.75%
residual binding, % of control [6]: 0.25%
residual binding, % of control [7]: 2.5%
% of control [8]: 0.25%
inhibition [9]: 2.8%
inhibition [10]: 18%
residual binding, % of control [11]: 0.1%
residual binding, % of control [12]: 7.2%
inhibition [13]: 0%
inhibition [14]: 73%
residual binding, % of control [15]: 11%
residual binding, % of control [16]: 4.6%
inhibition [17]: 9.2%
inhibition [18]: 100%
residual binding, % of control [19]: 85%
residual binding, % of control [20]: 0.8%
level, % of control [21]: 3.8%
residual binding, % of control [22]: 0.05%
residual binding, % of control [23]: 0.1%
inhibition [24]: 63%
inhibition [25]: 29%
residual binding, % of control [26]: 100%
residual binding, % of control [27]: 0.6%
residual binding, % of control [28]: 0.05%
residual binding, % of control [29]: 0.65%
residual binding, % of control [30]: 0.05%
inhibition [31]: 87%
residual binding, % of control [32]: 21%
inhibition [33]: 84%
inhibition [34]: 1.2%
level, % of control [35]: 13%
level, % of control [36]: 0.3%
inhibition [37]: 97%
inhibition [38]: 28%
residual binding, % of control [39]: 27%
residual binding, % of control [40]: 0%
residual binding, % of control [41]: 100%
residual binding, % of control [42]: 7.2%

CCN1CCN(Cc2ccc(NC(=O)c3ccc(C)c(C#Cc4cccnc4)c3)cc2C(F)(F)F)CC1
inhibition [1]: 2.8%
residual binding, % of control [2]: 65%
level, % of control [3]: 0.05%
residual binding, % of control [4]: 86%
level, % of control [5]: 0.9%
residual binding, % of control [6]: 0.3%
residual binding, % of control [7]: 2.8%
% of control [8]: 0.45%
inhibition [9]: 16%
inhibition [10]: 9.1%
residual binding, % of control [11]: 0.05%
residual binding, % of control [12]: 4.2%
inhibition [13]: 0%
inhibition [14]: 87%
residual binding, % of control [15]: 13%
residual binding, % of control [16]: 24%
inhibition [17]: 73%
inhibition [18]: 100%
residual binding, % of control [19]: 87%
residual binding, % of control [20]: 1.2%
level, % of control [21]: 9.8%
residual binding, % of control [22]: 0%
residual binding, % of control [23]: 0.1%
inhibition [24]: 81%
inhibition [25]: 6.8%
residual binding, % of control [26]: 100%
residual binding, % of control [27]: 11%
residual binding, % of control [28]: 0.4%
residual binding, % of control [29]: 2%
residual binding, % of control [30]: 0%
inhibition [31]: 100%
residual binding, % of control [32]: 54%
inhibition [33]: 100%
inhibition [34]: 0.25%
level, % of control [35]: 6.5%
level, % of control [36]: 3%
inhibition [37]: 100%
inhibition [38]: 85%
residual binding, % of control [39]: 7.8%
residual binding, % of control [40]: 0%
residual binding, % of control [41]: 100%
residual binding, % of control [42]: 18%
